# According to PMC6838683, “Discovery of Human Signaling Systems: Pairing Peptides to G Protein-Coupled Receptors” (Cell, 2019):
# Residues, ends and D or L forms follow the SMILES beside them. No end group written: not given here.
# Experiments:
# BB3 [1] = target: T1, BB3 (Homo sapiens, UniProt P32247); experiment: Dynamic mass redistribution (DMR), concentration-response; format: cell-based
# T1 construct: hIL-2Ra signal peptide (N); expressed in transfected cells
# T1 sequence (P32247 2-399 limits assumed): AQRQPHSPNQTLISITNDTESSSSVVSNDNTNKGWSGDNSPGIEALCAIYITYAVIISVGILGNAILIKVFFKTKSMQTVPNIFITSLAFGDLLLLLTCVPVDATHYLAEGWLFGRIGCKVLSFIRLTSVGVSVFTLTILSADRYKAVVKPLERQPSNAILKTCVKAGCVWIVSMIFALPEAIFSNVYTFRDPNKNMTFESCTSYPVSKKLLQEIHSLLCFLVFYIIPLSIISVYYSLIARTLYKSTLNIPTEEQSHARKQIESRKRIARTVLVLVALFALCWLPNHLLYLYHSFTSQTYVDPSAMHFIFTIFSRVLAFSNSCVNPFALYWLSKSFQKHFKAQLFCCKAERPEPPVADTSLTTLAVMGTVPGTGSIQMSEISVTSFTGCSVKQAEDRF
# OPRK1 = target: T2, OPRK1 (Homo sapiens, UniProt P41145); experiment: β-arrestin recruitment (Tango), known peptide receptors; format: cell-based; details: mean
# T2 construct: host or cells: HTLA cells (HEK293-derived)
# [2] = system: 120 GPCR targets, including all available orphan receptors and 27 known class A peptide receptors; experiment: Peptide library screen, β-arrestin recruitment (Tango, fold change, 10 μM); format: cell-based, human; details: repeat hitters of the peptide library screen; the value names the known receptor(s) confirmed in the β-arrestin recruitment (Tango) screen
# Method in brief: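 HTLA cells (HEK293 with tTA-dependent luciferase and β-arrestin2-TEV) transiently transfected with Tango GPCR constructs, then stimulated overnight with 10 μM peptides in 1% dFBS medium. Luciferase luminescence read after 15–20 min Bright-Glo incubation at room temperature.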
# BB3 [3] = target: T3, BB3 (Homo sapiens, UniProt P32247); experiment: β-arrestin recruitment (Tango), validation; format: cell-based
# T3 construct: host or cells: HTLA cells (HEK293-derived)
# T3 sequence (P32247 1-399): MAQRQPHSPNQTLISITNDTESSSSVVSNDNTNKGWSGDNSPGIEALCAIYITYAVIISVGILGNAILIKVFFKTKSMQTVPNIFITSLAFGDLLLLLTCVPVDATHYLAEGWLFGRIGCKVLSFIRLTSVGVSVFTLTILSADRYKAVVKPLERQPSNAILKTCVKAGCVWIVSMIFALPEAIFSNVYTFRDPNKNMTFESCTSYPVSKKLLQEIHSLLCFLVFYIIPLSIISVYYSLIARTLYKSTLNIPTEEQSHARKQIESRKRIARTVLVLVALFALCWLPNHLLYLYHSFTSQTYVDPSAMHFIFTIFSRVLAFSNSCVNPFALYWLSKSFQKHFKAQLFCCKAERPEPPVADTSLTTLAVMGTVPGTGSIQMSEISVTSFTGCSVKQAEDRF
# Protocol: The peptide library was additionally screened against 120 GPCR targets in parallel, including all available orphan receptors and 27 known class A peptide receptors using the Tango assay platform ([Kroeze et al., 2015]). Briefly, HTLA cells (a HEK293 cell line stably expressing a tTA-dependent luciferase reporter and a β-arrestin2-TEV fusion gene) were plated 10,000 cells/well in poly-L-lysine–coated clear-bottom white 384-well plates in DMEM supplemented with 10% FBS, 100 U/ml penicillin and 100 μg/ml streptomycin, 2 μg/ml puromycin and 100 μg/ml hygromycin B. 24 hr later, cells were transfected with Tango GPCR constructs using the calcium phosphate method ([Jordan et al., 1996]). The next day, culture medium was changed to DMEM + 1% dFBS and 10 μM peptides were added for overnight stimulation. Bright-Glo solution (Promega) was incubated for 15–20 min at room temperature, and luminescence was counted using a Trilux luminescence counter (Wallac).
# For subsequent peptide validation experiments using Tango assays, HTLA cells were transiently transfected in 10 cm dishes with the receptor of interest using polyethylenimine (PEI) ([Longo et al., 2013]). After 24 hr, 25,000 cells/well were plated in clear bottom, white-walled 384-well plates. Assays were performed as described above, with luminescence measured using an EnSpire 2300 Multimode plate reader (PerkinElmer). Luminescence counts were exported into Excel and were analyzed using GraphPad Prism 7.
# BB3 [4] = target: T1, BB3; experiment: IP1 accumulation (Gq/11), HTRF; format: cell-based; details: BB3, mean, SEM and n
# BB3 [5] = target: T1, BB3; experiment: Real-time receptor internalization (TR-FRET), concentration-response; format: cell-based
# GPR15 [6] = experiment: Repeat of proposed literature pairing (mass redistribution and/or internalization); format: cell-based, human; details: target GPR15; reported ligand tested on receptor-expressing cell line
# GPR15 [7] = experiment: Repeat of proposed literature pairing; format: cell-based, human
# Source text: Supplement mmc7.xlsx, sheet "Hit summary and classification" | column: Priority orphans
# GPR15 [8] = target: T4, GPR15 (Homo sapiens, UniProt P49685); experiment: cAMP inhibition (Gi/o), HTRF with forskolin; format: cell-based; details: GPR15L cleavage variants versus peptide 64; Figure 5, Table S7
# T4 construct: hIL-2Ra signal peptide (N); expressed in transfected cells
# T4 sequence (P49685 2-360 limits assumed): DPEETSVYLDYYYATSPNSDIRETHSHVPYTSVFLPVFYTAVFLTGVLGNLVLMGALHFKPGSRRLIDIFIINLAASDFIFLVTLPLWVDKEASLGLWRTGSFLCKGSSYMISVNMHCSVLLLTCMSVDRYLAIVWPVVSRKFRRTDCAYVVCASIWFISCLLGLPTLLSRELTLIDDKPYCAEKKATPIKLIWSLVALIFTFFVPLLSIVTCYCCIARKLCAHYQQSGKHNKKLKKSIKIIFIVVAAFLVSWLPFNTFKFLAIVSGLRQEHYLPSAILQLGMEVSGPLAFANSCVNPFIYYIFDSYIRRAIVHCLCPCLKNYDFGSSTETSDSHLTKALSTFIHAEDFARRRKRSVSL
# Protocol: Peptide-dependent second messenger responses were measured using commercially available HTRF-based IP1 and cAMP kits (Cisbio) as described previously ([Nørskov-Lauritsen et al., 2014]). Receptor expression was induced for 48 hr with 0.1 μg/ml doxycycline in 10 cm dishes. For IP1 measurements (to measure Gq/11), 2,500 cells/well were mixed with ligands in triplicate wells in low volume white 384-well plates at 37°C for 30 min. For cAMP assays, 2,500 cells/well were added in triplicate wells in white 384-well plates in the absence or presence of 3 μM forskolin (to measure Gs and Gi/o activation respectively). 100 μM IBMX was included to prevent cAMP degradation during 30 min stimulation on a plate shaker at room temperature. For both assays, HTRF was measured using an EnVision 2104 Multimode plate reader (PerkinElmer).
# GPR183 = target: T5, GPR183 (Homo sapiens, UniProt P32249); experiment: β-arrestin recruitment (Tango), indicative pairing; format: cell-based; details: mean, n = 3
# T5 construct: host or cells: HTLA cells (HEK293-derived)
# NPY5 = target: T6, NPY5 (Homo sapiens, UniProt Q15761); experiment: β-arrestin recruitment (Tango), known peptide receptors; format: cell-based; details: NPY5R; Emax and pEC50 n.d.; n = 3
# T6 construct: host or cells: HTLA cells (HEK293-derived)
# T6 sequence (Q15761 1-445): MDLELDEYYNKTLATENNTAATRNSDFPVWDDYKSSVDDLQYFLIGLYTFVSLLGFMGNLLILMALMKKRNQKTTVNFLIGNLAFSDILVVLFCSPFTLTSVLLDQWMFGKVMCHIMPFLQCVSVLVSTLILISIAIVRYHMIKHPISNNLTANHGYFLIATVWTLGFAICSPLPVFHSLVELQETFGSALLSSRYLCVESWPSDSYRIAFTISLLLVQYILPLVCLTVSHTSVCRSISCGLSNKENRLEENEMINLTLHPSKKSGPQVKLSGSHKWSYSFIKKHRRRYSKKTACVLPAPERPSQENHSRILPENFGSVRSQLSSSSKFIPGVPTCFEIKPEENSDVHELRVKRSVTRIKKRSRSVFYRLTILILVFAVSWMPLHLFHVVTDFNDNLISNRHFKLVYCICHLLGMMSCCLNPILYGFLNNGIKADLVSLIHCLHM
# MLNR = target: T7, MLNR (Homo sapiens, UniProt O43193); experiment: as above; format: cell-based; details: endogenous ligand(s) included in peptide library
# T7 construct: host or cells: HTLA cells (HEK293-derived)
# Source text: (§1) Supplement mmc6.xlsx, sheet "Peptide GPCR controls" | column: Confirmed?
# GPR161 = target: T8, GPR161 (Homo sapiens, UniProt Q8N6U8); experiment: β-arrestin recruitment (Tango), indicative pairing; format: cell-based; details: mean, n = 3
# T8 construct: host or cells: HTLA cells (HEK293-derived)
# NPS = experiment: β-arrestin recruitment (Tango), known peptide receptors; format: cell-based, human; details: NPS receptor, endogenous ligand(s) included in peptide library
# Source text: as §1
# NTSR2 = experiment: as above; format: cell-based, human; details: Neurotensin not cyclized
# Source text: as §1
# NTSR1 = experiment: as above; format: cell-based, human; details: Neurotensin not cyclized
# Source text: Supplement mmc6.xlsx, sheet "Peptide GPCR controls" | column: Confirmed?; Notes
# OPRL1 = experiment: as above; format: cell-based, human; details: endogenous ligand(s) included in peptide library
# Source text: as §1
# HCTR2 = experiment: as above; format: cell-based, human; details: endogenous ligand(s) included in peptide library
# Source text: as §1
# GPR55 = GPR55 (Homo sapiens, UniProt Q9Y2T6)
# GPR1 (PathHunter cells) = GPR1 (PathHunter cells) (UniProt P46091)
# [9] = target: GPR1 (Tango construct) (human) (UniProt P46091)
# GPR17 = target: T9, GPR17 (Homo sapiens, UniProt Q13304); experiment: β-arrestin recruitment (Tango), indicative pairing; format: cell-based; details: mean, n = 3
# T9 construct: host or cells: HTLA cells (HEK293-derived)
# NOP (OPRL1) = target: T10, NOP (OPRL1) (Homo sapiens, UniProt P41146); experiment: β-arrestin recruitment (Tango), known peptide receptors; format: cell-based; details: mean, n = 3
# T10 construct: host or cells: HTLA cells (HEK293-derived)
# Source text: Supplement mmc7.xlsx, sheet "Peptide validation data" | column: Emax; pEC50
# T10 sequence (P41146 whole entry): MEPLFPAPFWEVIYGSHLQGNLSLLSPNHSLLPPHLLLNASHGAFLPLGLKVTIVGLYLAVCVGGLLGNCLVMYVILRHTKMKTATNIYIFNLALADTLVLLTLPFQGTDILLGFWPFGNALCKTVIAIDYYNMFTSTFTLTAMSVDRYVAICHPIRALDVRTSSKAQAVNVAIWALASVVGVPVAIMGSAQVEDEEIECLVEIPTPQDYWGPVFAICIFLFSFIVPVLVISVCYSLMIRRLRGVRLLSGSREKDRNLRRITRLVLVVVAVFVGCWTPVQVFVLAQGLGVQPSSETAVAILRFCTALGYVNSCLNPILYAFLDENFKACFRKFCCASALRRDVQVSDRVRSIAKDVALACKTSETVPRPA
# T5 sequence (P32249 whole entry): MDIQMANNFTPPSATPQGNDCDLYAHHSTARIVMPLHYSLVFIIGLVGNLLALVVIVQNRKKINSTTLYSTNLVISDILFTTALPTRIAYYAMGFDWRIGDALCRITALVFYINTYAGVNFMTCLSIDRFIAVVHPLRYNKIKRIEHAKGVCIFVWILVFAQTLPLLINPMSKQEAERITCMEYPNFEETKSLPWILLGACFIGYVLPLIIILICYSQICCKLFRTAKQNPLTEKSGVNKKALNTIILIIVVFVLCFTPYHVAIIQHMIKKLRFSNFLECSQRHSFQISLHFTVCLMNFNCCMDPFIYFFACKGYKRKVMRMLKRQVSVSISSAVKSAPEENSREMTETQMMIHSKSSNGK
# T8 sequence (Q8N6U8 whole entry): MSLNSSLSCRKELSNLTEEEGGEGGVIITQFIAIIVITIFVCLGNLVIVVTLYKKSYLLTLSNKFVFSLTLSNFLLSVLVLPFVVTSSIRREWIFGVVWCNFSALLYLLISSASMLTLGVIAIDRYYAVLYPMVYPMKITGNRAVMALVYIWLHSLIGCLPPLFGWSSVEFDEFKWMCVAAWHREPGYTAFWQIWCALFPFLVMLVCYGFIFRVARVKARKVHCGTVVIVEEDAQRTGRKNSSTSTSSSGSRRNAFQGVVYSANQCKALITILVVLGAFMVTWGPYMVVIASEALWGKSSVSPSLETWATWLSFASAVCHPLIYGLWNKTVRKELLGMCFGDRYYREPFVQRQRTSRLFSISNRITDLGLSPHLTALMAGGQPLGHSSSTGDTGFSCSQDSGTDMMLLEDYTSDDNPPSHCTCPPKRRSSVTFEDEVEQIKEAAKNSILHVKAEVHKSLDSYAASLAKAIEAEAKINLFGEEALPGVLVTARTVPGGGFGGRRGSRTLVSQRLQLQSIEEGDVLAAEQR
# T2 sequence (P41145 whole entry): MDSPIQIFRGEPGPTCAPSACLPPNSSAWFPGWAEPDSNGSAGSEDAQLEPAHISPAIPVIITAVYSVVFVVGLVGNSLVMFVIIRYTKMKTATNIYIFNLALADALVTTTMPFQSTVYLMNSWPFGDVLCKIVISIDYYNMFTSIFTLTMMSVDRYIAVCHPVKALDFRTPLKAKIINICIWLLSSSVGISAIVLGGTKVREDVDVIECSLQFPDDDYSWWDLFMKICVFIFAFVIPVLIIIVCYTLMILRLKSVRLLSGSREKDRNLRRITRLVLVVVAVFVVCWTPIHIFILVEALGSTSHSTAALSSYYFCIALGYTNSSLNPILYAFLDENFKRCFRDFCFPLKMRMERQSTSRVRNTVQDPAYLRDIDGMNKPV
# T9 sequence (Q13304 whole entry): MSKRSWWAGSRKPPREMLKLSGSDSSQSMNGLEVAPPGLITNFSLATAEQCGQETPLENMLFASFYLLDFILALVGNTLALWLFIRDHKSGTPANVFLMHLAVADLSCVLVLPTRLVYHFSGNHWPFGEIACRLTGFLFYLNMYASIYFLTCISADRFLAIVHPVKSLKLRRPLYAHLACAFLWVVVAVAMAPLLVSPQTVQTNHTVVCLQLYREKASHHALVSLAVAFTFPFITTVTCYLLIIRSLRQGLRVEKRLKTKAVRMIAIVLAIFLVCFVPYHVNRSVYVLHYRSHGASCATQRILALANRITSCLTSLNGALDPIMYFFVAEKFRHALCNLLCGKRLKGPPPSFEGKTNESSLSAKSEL
# T7 sequence (O43193 whole entry): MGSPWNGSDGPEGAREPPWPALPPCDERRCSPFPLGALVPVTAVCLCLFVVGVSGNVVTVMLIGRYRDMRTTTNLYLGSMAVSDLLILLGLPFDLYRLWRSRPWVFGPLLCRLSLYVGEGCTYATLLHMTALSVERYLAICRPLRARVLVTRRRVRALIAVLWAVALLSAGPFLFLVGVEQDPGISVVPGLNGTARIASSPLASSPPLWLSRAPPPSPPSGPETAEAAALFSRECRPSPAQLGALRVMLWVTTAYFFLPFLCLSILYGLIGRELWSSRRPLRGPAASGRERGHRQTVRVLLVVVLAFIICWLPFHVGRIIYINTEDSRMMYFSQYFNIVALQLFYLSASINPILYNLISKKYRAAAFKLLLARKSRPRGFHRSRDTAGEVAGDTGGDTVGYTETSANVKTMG
# Sequence of GPR55 (Q9Y2T6 whole entry): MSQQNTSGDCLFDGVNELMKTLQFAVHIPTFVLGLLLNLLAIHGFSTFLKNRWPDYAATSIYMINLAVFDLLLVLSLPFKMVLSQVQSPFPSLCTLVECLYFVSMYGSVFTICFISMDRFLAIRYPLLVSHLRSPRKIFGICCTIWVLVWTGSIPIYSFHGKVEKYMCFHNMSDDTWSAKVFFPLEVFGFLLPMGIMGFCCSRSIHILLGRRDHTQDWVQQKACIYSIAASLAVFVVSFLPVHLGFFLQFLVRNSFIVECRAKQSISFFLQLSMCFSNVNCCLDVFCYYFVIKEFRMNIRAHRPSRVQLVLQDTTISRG
# Sequence of GPR1 (PathHunter cells) (P46091 whole entry): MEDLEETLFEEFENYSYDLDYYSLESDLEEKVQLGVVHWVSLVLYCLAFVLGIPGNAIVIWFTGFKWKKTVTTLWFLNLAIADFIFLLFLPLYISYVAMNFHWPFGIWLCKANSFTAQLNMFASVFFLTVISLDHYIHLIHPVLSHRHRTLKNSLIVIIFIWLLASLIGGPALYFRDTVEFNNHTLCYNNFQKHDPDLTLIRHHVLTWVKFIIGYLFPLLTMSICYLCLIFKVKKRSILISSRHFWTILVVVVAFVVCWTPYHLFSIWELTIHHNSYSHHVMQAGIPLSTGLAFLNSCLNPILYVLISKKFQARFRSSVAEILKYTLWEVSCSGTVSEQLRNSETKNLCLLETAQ
# Sequence of GPR1 (Tango construct) (human) (P46091 whole entry): as above
compound,measurement,setting,value
"CSCC[C@H](NC(=O)[C@H](Cc1ccccc1)NC(=O)CNC(=O)CNC(=O)[C@@H](N)Cc1ccc(O)cc1)C(=O)N[C@@H](CCCNC(=N)N)C(=O)N[C@@H](CCCNC(=N)N)C(=O)N[C@H](C(=O)NCC(=O)N[C@@H](CCCNC(=N)N)C(=O)N1CCC[C@H]1C(=O)N[C@@H](CCC(=O)O)C(=O)N[C@@H](Cc1c[nH]c2ccccc12)C(=O)N[C@@H](Cc1c[nH]c2ccccc12)C(=O)N[C@@H](CCSC)C(=O)N[C@@H](CC(=O)O)C(=O)N[C@@H](Cc1ccc(O)cc1)C(=O)N[C@@H](CCC(N)=O)C(=O)N[C@@H](CCCCN)C(=O)N[C@@H](CCCNC(=N)N)C(=O)N[C@@H](Cc1ccc(O)cc1)C(=O)NCC(=O)NCC(=O)N[C@@H](Cc1ccccc1)C(=O)N[C@@H](CC(C)C)C(=O)O)C(C)C [Peptide 158, Peptide E] (H-YGGFMRRVGRPEWWMDYQKRYGGFL-OH)",EC50,BB3 [1],> 10 µM
same,EC50,"BB3 [1]; pEC50, DMR (peak), BB3, mean, SEM and n",72.4 µM
same,"Emax, Tango (fold over basal)",OPRK1; n = 3,5.0 fold over basal
same,EC50,"OPRK1; n = 3, read-out: pEC50, Tango (fold over basal) (converted)",1.35 µM
same,Confirmation of known target in Tango,[2],"kappa, mu"
same,EC50,"BB3 [3]; BB3, mean, SEM and n, read-out: pEC50, Tango (fold over basal) (converted)",93.3 µM
same,EC50,"BB3 [3]; HTLA cells transiently transfected, overnight stimulation, luciferase, mean ± SEM of 3-4 independent experiments in triplicate, read-out: pEC50, β-arrestin recruitment (Tango), BB3 (converted)",> 10 µM
same,"Emax, IP1",BB3 [4],164.0 nM
same,EC50,"BB3 [4]; pEC50, IP1 (nM)",6760 nM
same,"Emax, Internalization (AUC)",BB3 [5],16.0
GPR15L: longest 57-residue cleavage variant of C10orf99 with two intramolecular disulfide bridges (KRRPAKAWSGRRTRLCCHRVPSPNSTNLKGHHVRLCKPCKLEPEPRLWVVPGALPQV; disulfide (positions not given here)),Active in DMR/internalization,GPR15 [6],Yes
same,Peptide pairing for orphan receptor GPR15 (confirmed/unconfirmed),GPR15 [7],Confirmed peptide pairings for orphans
same,fold improved potency over the 11-amino acid peptide at GPR15,GPR15 [8],100 fold
KGGFSFRF [Peptide 31],"Emax, Tango (fold over basal)",GPR183,1.7 fold over basal
same,"pEC50, Tango (fold over basal)",GPR183,8.61
same,"Comment, Tango (fold over basal)",NPY5,Response >1uM; part of QRFP43
Motilin,Confirmed? (confirmation of b-arrestin recruitment),MLNR,Yes
NWTPQAMLYLKGAQ [Peptide 95],"Emax, Tango (fold over basal)",GPR161,1.4 fold over basal
same,"pEC50, Tango (fold over basal)",GPR161,6.57
Neuropeptide S (SFRNGVGTGMKKTSFQRAKS),Confirmed? (confirmation of b-arrestin recruitment),NPS,No
Neurotensin,Confirmed? (confirmation of b-arrestin recruitment),NTSR2,No
same,Confirmed? (confirmation of b-arrestin recruitment),NTSR1; Tango,Yes
same,Notes (b-arrestin recruitment response),NTSR1; validation,Neurotensin not cyclized; weak activation in validation
Nociceptin/orphanin FQ,Confirmed? (confirmation of b-arrestin recruitment),OPRL1,Yes
Orexin-B,Confirmed? (confirmation of b-arrestin recruitment),HCTR2,Yes
PACAP27 (peptide),pEC50 at GPR55 (internalization or mass redistribution; assay not given),GPR55,9.51 pEC50
Peptide 141 (Osteocrin_(-2-19)),pEC50 in PathHunter β-arrestin recruitment assay,GPR1 (PathHunter cells),6.18 pEC50
same,pEC50 in Tango β-arrestin recruitment assay,[9],5.6 pEC50
RHVNHSATEALGELRERAPGQGTNGFQLLRHAV [Peptide 192],"Emax, Tango (fold over basal)",GPR17,1.3 fold over basal
same,"pEC50, Tango (fold over basal)",GPR17,9.08
TLGPQAHSLALQSVDLLFRP [Peptide 132],"Emax, Tango (fold over basal)",NOP (OPRL1),8.8 fold over basal
same,"pEC50, Tango (fold over basal)",NOP (OPRL1),4.82
